{"source": "patent US11014934B2", "about": "“Antiseptic drug” (AO “TATKHIMFARMPREPARATY”, priority 2017, dated 2021)", "key": {"E. coli CDC F-50": {"system": "E. coli CDC F-50", "assay": "Antiseptic activity on rat skin", "type": "in vivo", "settings": "E. coli CDC F-50 on rat skin; antiseptic concentration 0.2%; exposure time 5 min; n = 6", "protocol": "The study of the antiseptic activity of compound I in rats […] was carried out in accordance with [R 4.2.2643-10 Metody laboratornykh issledovaniy i ispytaniy mediko-profilakticheskikh dezinfektsionnykh sredstv dlya otsenki ikh effektivnosti i bezopasnosti: Rukovodstvo.—M: Federal'nyy tsentr gigiyeny i epidemiologii Rospotrebnadzora, 2010.—S. 615. R 4.2.2643-10 Laboratory methods for the study and testing of medical prophylactic disinfectants to assess their effectiveness and safety: Guide.—M.:: Federal Center for Hygiene and Epidemiology of Rospotrebnadzor, 2010.—P. 615]. Experiments were carried out on male Wistar rats with a body weight of 180-250 g.\nA culture of E. coli CDC F-50, grown on dense nutrient medium for (18-20) hours, was washed with sterile isotonic chloride solution, centrifuged at 5000 rpm for 5 minutes, the supernatant was drained and cells were resuspended with sterile isotonic sodium chloride solution.\nThe bacterial suspension of microorganisms was brought to a turbidity of […] according to McFarland, which corresponds to a concentration of 1.5×10^7 cells/ml.\nAnimals were formed in 5 groups of 6 animals each. All manipulations with animals were performed under isoflurane anesthesia (4%—induction of anesthesia (2 min, 1 l/min), 2%—basis narcosis). A portion of 5×5 cm was shaved with a hair clipper on the dorsal part of the body of the animal.\nA 0.25 ml microbial suspension containing 1×10^7 CFU of E. coli CDC F-50 was applied to the shaved portion of the rat back with a dispenser and distributed with a sterile disposable spatula over the entire square area. It was left for 2-3 minutes until dry.\nThen, a gauze cloth (5×5 cm) was applied to the skin of rats for 5 minutes. In the experimental group, the tissue was pre-wetted with 1 ml of 0.2% solution of compound I, and in the positive control groups, the tissue was dipped in 1 ml of 0.2% miramistin, benzalkonium chloride and chlorhexidine. In the negative control group, the cloth was immersed in 1 ml of sterile saline. […]\nAfter the time required for the cultivation of microorganisms of this species, the results were counted according to the number of colonies grown on the Petri dish. […] After counting the number of colonies grown on Petri dishes, the density of contamination per 1 cm^2 of the surface and the percentage of disinfection were calculated, taking the number of colonies removed from control surfaces and not exposed to antiseptics action as 100%. The percentage of growth inhibition of E. coli CDC F-50 was calculated by the formula: […]"}, "Stylonychia mytilus": {"system": "Stylonychia mytilus", "assay": "Antiprotozoal activity by death of protozoa", "type": "cell-based", "settings": "death of protozoa", "protocol": "Evaluation of the antiprotozoal activity of compound I was determined by the viability of the protozoa genus of hypotrichs Stylonychia mytilus in a nutrient medium in the presence of the studied substances. A mother liquor of compound I (10 mg/ml) was prepared in a mixture of DMSO and 96% ethanol (1:1). A 1% aqueous solution of DMSO and ethyl alcohol served as a negative control, and miramistin, benzalkonium chloride, and chlorhexidine were used as reference preparations. Then, from the mother liquors by repeated dilutions with water, working solutions were prepared corresponding to doses of 5; 10; 20; 25; 50; 75; 100 and 150 μg/ml. 10 μl of culture medium with protozoa and 10 μl of a solution of the test substance were applied to a chamber slide. The experiment was done in five replicates.\nSlides were examined under a light microscope, antiprotozoal activity of substances (MIC and IC50) were determined by the death of protozoa. The Hill regression model with 5 parameters was used for the analysis."}}, "data": [{"compound": "[H]/N=C(\\N/C(=N/[H])NCCCCCCNC(=N)NC(=N)Nc1ccc(Cl)cc1)Nc1ccc(Cl)cc1", "note": "[Chlorhexidine]", "values": [{"measurement": "Growth inhibition rate (M ± SD)", "setting": "E. coli CDC F-50", "value": "95.7 ± 3.4", "unit": "%"}, {"measurement": "IC50", "setting": "Stylonychia mytilus; Hill regression, read-out: IC50 (95% confidence interval)", "value": 42, "unit": "µg/mL"}, {"measurement": "MIC", "setting": "Stylonychia mytilus; read-out: MIC", "value": 20, "unit": "µg/mL"}]}]}
